Assay results published in patent publication US8841321B2, “Quinoline derivatives as antibacterial agents” (Janssen Pharmaceutica NV, priority 2005, dated 2014).
≈ marks a conversion by molar mass, not a printed value.

Legend:
[1] = system: STA RMETH (methicilline resistant Staphylococcus aureus (MRSA), a clinical isolate from the University of Antwerp); test: Microtitre plate assay, IC90 determination; assay type: cell-based; conditions: for IC90: Staphylococcus aureus, MRSA, read-out: IC90 (μg/ml) STA RMETH
[2] = system: PAE 27853 (Pseudomonas aeruginosa (ATCC27853)); test: Microtitre plate assay, IC90 determination; assay type: cell-based; conditions: for IC90: Pseudomonas aeruginosa, ATCC27853, Pseudomonas aeruginosa (ATCC27853), read-out: IC90 (μg/ml) PAE 27853; for IC90 (μg/ml) PAE 27853: Pseudomonas aeruginosa (ATCC27853)
[3] = system: SPY 8668 (Streptococcus pyogens (ATCC8668)); test: Microtitre plate assay, IC90 determination; assay type: cell-based; conditions: for IC90: Streptococcus, ATCC8668, Streptococcus pyogens (ATCC8668), read-out: IC90 (μg/ml) SPY 8668; for IC90 (μg/ml) SPY 8668: Streptococcus pyogens (ATCC8668)
[4] = system: EFA 29212 (Enterococcus faecalis (ATCC29212)); test: Microtitre plate assay, IC90 determination; assay type: cell-based; conditions: for IC90: Enterococcus faecalis, ATCC29212, Enterococcus faecalis (ATCC29212), read-out: IC90 (μg/ml) EFA 29212; for IC90 (μg/ml) EFA 29212: Enterococcus faecalis (ATCC29212)
[5] = system: SPN 6305 (Streptococcus pneumoniae (ATCC6305)); test: Microtitre plate assay, IC90 determination; assay type: cell-based; conditions: for IC90: Streptococcus pneumoniae, ATCC6305, Streptococcus pneumoniae (ATCC6305), read-out: IC90 (μg/ml) SPN 6305; for IC90 (μg/ml) SPN 6305: Streptococcus pneumoniae (ATCC6305)
Method in brief: (§1)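 Growth-inhibition endpoint: resazurin added 3 h after inoculation, plates incubated overnight, fluorescence at 530/590 nm after 24 h at 37 °C. Inocula of roughly 10–60 CFU per well in Mueller-Hinton medium; compounds titrated five-fold. IC90 reported as μg/ml.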

[6] = system: STA 29213 (Staphylococcus aureus (ATCC29213)); test: Microtitre plate assay, IC90 determination; assay type: cell-based; conditions: for IC90: Staphylococcus aureus, ATCC29213, Staphylococcus aureus (ATCC29213), read-out: IC90 (μg/ml) STA 29213; for IC90 (μg/ml) STA 29213: Staphylococcus aureus (ATCC29213)
Method in brief: as §1

[7] = system: STA 25923 (Staphylococcus aureus (ATCC25923)); test: Microtitre plate assay, IC90 determination; assay type: cell-based; conditions: for IC90 (μg/ml) STA 25923: Staphylococcus aureus (ATCC25923); for IC90: Staphylococcus aureus, ATCC25923, Staphylococcus aureus (ATCC25923), read-out: IC90 (μg/ml) STA 25923
[8] = system: LMO 49594 (Listeria monocytogenes (ATCC49594)); test: Microtitre plate assay, IC90 determination; assay type: cell-based; conditions: for IC90 (μg/ml) LMO 49594: Listeria monocytogenes (ATCC49594); for IC90: Listeria monocytogenes, ATCC49594, Listeria monocytogenes (ATCC49594), read-out: IC90 (μg/ml) LMO 49594
[9] = system: BSU 43639 (Bacillus subtilis (ATCC43639)); test: Microtitre plate assay, IC90 determination; assay type: cell-based; conditions: for IC90 (μg/ml) BSU 43639: Bacillus subtilis (ATCC43639); for IC90: Bacillus subtilis, ATCC43639, Bacillus subtilis (ATCC43639), read-out: IC90 (μg/ml) BSU 43639

| SMILES | melting point [°C] | IC90 (μg/ml) SPN 6305 [5] [µg/mL] | IC90 (μg/ml) STA 29213 [6] [µg/mL] | IC90 (μg/ml) STA RMETH [1] [µg/mL] | IC90 (μg/ml) PAE 27853 [2] [µg/mL] | IC90 (μg/ml) SPY 8668 [3] [µg/mL] | IC90 (μg/ml) EFA 29212 [4] [µg/mL] | other results |
| --- | --- | --- | --- | --- | --- | --- | --- | --- |
| CNCCCCC(O)(c1ccccc1)C(c1ccccc1)c1cc2cc(Br)ccc2nc1OC (centres unmarked) [Compound 53] | 121 | – | – | – | – | – | – | IC90 [1]: 9.2 µg/mL (≈ 17.7 µM); IC90 [2]: 8.23 µg/mL (≈ 15.8 µM); IC90 [3]: 1.64 µg/mL (≈ 3.16 µM); IC90 [4]: 1.64 µg/mL (≈ 3.16 µM); IC90 [5]: 0.41 µg/mL (≈ 0.789 µM); IC90 [6]: 1.64 µg/mL (≈ 3.16 µM) |
| COc1nc2ccccc2cc1C(c1ccccc1)C(O)(CCCCN(C)C)c1ccc2ccccc2c1 (centres unmarked) [Compound 36] | 105 | 9.0 (≈ 17.8 µM) | 8.0 (≈ 15.9 µM) | – | – | – | – | – |
| COc1nc2ccc(Br)cc2cc1C(c1ccccc1)C(O)(CCCCN(C)C)c1ccc2c(c1)OCO2 (centres unmarked) [Compound 9] | 98 | 11.5 (≈ 19.9 µM) | 9.1 (≈ 15.8 µM) | – | – | – | – | – |
| COc1ccc2cc(C(O)(CCCCN(C)C)C(c3ccccc3)c3cc4ccccc4nc3OC)ccc2c1 (centres unmarked) [Compound 34] | 179 | 1.9 (≈ 3.55 µM) | 3.8 (≈ 7.11 µM) | 10.7 (≈ 20 µM) | 2.7 (≈ 5.05 µM) | 8.5 (≈ 15.9 µM) | 8.5 (≈ 15.9 µM) | – |
| COc1nc2ccc(-c3cccnc3)cc2cc1C(c1ccccc1)C(O)(CCCCN(C)C)c1ccccc1 (centres unmarked) [Compound 42] | 203 | – | – | – | – | – | – | IC90 [5]: 53.2 µg/mL (≈ 100 µM) |
| COc1nc2ccc(CO)cc2cc1C(c1ccccc1)C(O)(CCCCN(C)C)c1ccc2ccccc2c1 (centres unmarked) [Compound 55] | 174 | – | – | – | – | – | – | IC90 [5]: 10.7 µg/mL (≈ 20 µM); IC90 [6]: 8.47 µg/mL (≈ 15.8 µM) |
| COc1nc2cccc(Br)c2cc1C(c1ccccc1)C(O)(CCCCN(C)C)c1ccc2ccccc2c1 (centres unmarked) [Compound 28] | 170 | 58.4 (≈ 100 µM) | 1.9 (≈ 3.26 µM) | 9.3 (≈ 15.9 µM) | – | – | – | – |
| COc1ccc2cc(C(O)(CCCCN(C)C)C(c3ccccc3)c3cc4c(Br)cccc4nc3OC)ccc2c1 (centres unmarked) [Compound 26] | 164 | 4.3 (≈ 7.01 µM) | 1.9 (≈ 3.1 µM) | 10.9 (≈ 17.8 µM) | 1.9 (≈ 3.1 µM) | 1.9 (≈ 3.1 µM) | 1.9 (≈ 3.1 µM) | – |
| CCN(CC)CCCCC(O)(CCc1cccc2ccccc12)C(c1ccccc1)c1cc2cc(Br)ccc2nc1OC (centres unmarked) [Compound 72] | 138 | 1.61 (≈ 2.52 µM) | 2.02 (≈ 3.16 µM) | 2.55 (≈ 3.99 µM) | – | – | – | – |
| COc1nc2ccc(-c3ccco3)cc2cc1C(c1ccccc1)C(O)(CCCCN(C)C)c1ccc2ccccc2c1 (centres unmarked) [Compound 38] | 182 | 11.4 (≈ 20 µM) | 4.5 (≈ 7.88 µM) | 2.3 (≈ 4.03 µM) | – | – | – | IC90 [2]: 9.1 µg/mL (≈ 15.9 µM); IC90 [3]: 9.1 µg/mL (≈ 15.9 µM); IC90 [4]: 7.2 µg/mL (≈ 12.6 µM) |
| COc1nc2ccc(Br)cc2cc1C(c1ccccc1)C(O)(CCCCN(C)C)c1cccnc1 (centres unmarked) [Compound 15] | 150 | 53.5 (≈ 100 µM) | 53.5 (≈ 100 µM) | – | – | – | – | – |
| COc1ccc2cc(C(O)(CCCCN(C)C)C(c3ccccc3)c3cc4ccc(Br)cc4nc3OC)ccc2c1 (centres unmarked) [Compound 30] | 160 | 21.8 (≈ 35.5 µM) | 9.7 (≈ 15.8 µM) | – | – | – | – | – |
| COc1nc2ccc(Br)cc2cc1C(c1ccccc1)C(O)(CCCCN(C)C)c1cc(F)cc(F)c1 (centres unmarked) [Compound 11] | 157 | – | 1.8 (≈ 3.16 µM) | – | – | – | – | IC90 [1]: 11.4 µg/mL (≈ 20 µM); IC90 [2]: 9 µg/mL (≈ 15.8 µM); IC90 [3]: 9 µg/mL (≈ 15.8 µM); IC90 [4]: 9 µg/mL (≈ 15.8 µM); IC90 [5]: 9 µg/mL (≈ 15.8 µM) |
| CNCCCC(O)(c1ccc(F)cc1)C(c1ccccc1)c1cc2cc(Br)ccc2nc1OC (centres unmarked) [Compound 68] | 188 | 1.9 (≈ 3.63 µM) | 8.3 (≈ 15.9 µM) | – | 8.3 (≈ 15.9 µM) | 1.7 (≈ 3.25 µM) | 18.6 (≈ 35.5 µM) | – |
| COc1nc2ccc(Br)cc2cc1C(c1ccccc1)C(O)(CCCN(C)C)c1ccc2ccccc2c1 (centres unmarked) [Compound 47] | – | 5.1 (≈ 8.95 µM) | 57.0 (≈ 100 µM) | 12.8 (≈ 22.5 µM) | 10.1 (≈ 17.7 µM) | 11.4 (≈ 20 µM) | 25.4 (≈ 44.6 µM) | IC90 (μg/ml) STA 25923 [7]: 12.8 µg/mL (≈ 22.5 µM); IC90 (μg/ml) LMO 49594 [8]: 2.3 µg/mL (≈ 4.04 µM); IC90 (μg/ml) BSU 43639 [9]: 11.4 µg/mL (≈ 20 µM) |
| COc1nc2ccc(Br)cc2cc1C(c1ccccc1)C(O)(CCCN(C)C)c1cccc2ccccc12 (centres unmarked) [Compound 50] | – | – | – | – | – | – | – | IC90 [1]: 14.3 µg/mL (≈ 25.1 µM); IC90 [2]: 11.4 µg/mL (≈ 20 µM); IC90 [3]: 11.4 µg/mL (≈ 20 µM); IC90 [4]: 57 µg/mL (≈ 100 µM); IC90 [5]: 14.3 µg/mL (≈ 25.1 µM); IC90 [6]: 45.2 µg/mL (≈ 79.4 µM); IC90 [7]: 14.3 µg/mL (≈ 25.1 µM); IC90 [8]: 14.3 µg/mL (≈ 25.1 µM); IC90 [9]: 14.3 µg/mL (≈ 25.1 µM) |
| COc1nc2ccc(Br)cc2cc1C(c1ccccc1)C(O)(CCCN1CCCC1)c1ccc2ccccc2c1 (racemic) [Compound 48] | – | 59.6 (≈ 100 µM) | 47.3 (≈ 79.4 µM) | 9.4 (≈ 15.8 µM) | 47.3 (≈ 79.4 µM) | 47.3 (≈ 79.4 µM) | 59.6 (≈ 100 µM) | IC90 (μg/ml) STA 25923 [7]: 9.4 µg/mL (≈ 15.8 µM); IC90 (μg/ml) LMO 49594 [8]: 23.7 µg/mL (≈ 39.8 µM); IC90 (μg/ml) BSU 43639 [9]: 59.6 µg/mL (≈ 100 µM) |
| COc1nc2ccc(Br)cc2cc1C(c1ccccc1)C(O)(CCCN(C)C)c1ccc2ccccc2c1 (centres unmarked) [Compound 46] | – | 57.0 (≈ 100 µM) | – | 50.8 (≈ 89.2 µM) | – | 50.8 (≈ 89.2 µM) | – | IC90 [2]: 12.8 µg/mL (≈ 22.5 µM); IC90 [4]: 50.8 µg/mL (≈ 89.2 µM); IC90 [6]: 57 µg/mL (≈ 100 µM); IC90 (μg/ml) STA 25923 [7]: 50.8 µg/mL (≈ 89.2 µM); IC90 (μg/ml) LMO 49594 [8]: 45.2 µg/mL (≈ 79.4 µM); IC90 (μg/ml) BSU 43639 [9]: 57.0 µg/mL (≈ 100 µM) |
| COc1nc2ccc(Br)cc2cc1C(c1ccccc1)C(O)(CCCCN(C)C)c1ccc2ccccc2c1 (centres unmarked) [Compound 24] | – | 1.9 (≈ 3.26 µM) | 1.9 (≈ 3.26 µM) | 1.9 (≈ 3.26 µM) | 1.9 (≈ 3.26 µM) | 1.9 (≈ 3.26 µM) | 1.9 (≈ 3.26 µM) | IC90 (μg/ml) STA 25923 [7]: 0.5 µg/mL (≈ 0.857 µM); IC90 (μg/ml) LMO 49594 [8]: 1.9 µg/mL (≈ 3.26 µM); IC90 (μg/ml) BSU 43639 [9]: 1.9 µg/mL (≈ 3.26 µM) |
| COc1nc2ccc(Br)cc2cc1C(c1ccccc1)C(O)(CCCCN(C)C)c1cc(F)ccc1F (centres unmarked) [Compound 13] | 166 | 25.4 (≈ 44.6 µM) | – | – | – | – | – | – |
| COc1nc2ccc(Br)cc2cc1C(c1ccccc1)C(O)(CCCCN(C)C)c1ccccc1 (centres unmarked) [Compound 20] | – | 2.1 (≈ 3.94 µM) | – | – | – | 4.2 (≈ 7.87 µM) | – | IC90 [1]: 10.6 µg/mL (≈ 19.9 µM); IC90 [2]: 10.6 µg/mL (≈ 19.9 µM); IC90 [4]: 10.6 µg/mL (≈ 19.9 µM); IC90 [6]: 10.6 µg/mL (≈ 19.9 µM); IC90 [7]: 10.6 µg/mL (≈ 19.9 µM); IC90 [8]: 13.4 µg/mL (≈ 25.1 µM); IC90 [9]: 10.6 µg/mL (≈ 19.9 µM) |
| COc1ccc2cc(C(O)(CCCCN(C)C)C(c3ccccc3)c3cc4cc(Br)ccc4nc3OC)ccc2c1 (single isomer, unassigned) [Compound 5] | 96 | 2.4 (≈ 3.91 µM) | 1.9 (≈ 3.1 µM) | 1.9 (≈ 3.1 µM) | 1.9 (≈ 3.1 µM) | – | 1.9 (≈ 3.1 µM) | IC90 [3]: 1.5 µg/mL (≈ 2.44 µM); IC90 (μg/ml) LMO 49594 [8]: 1.9 µg/mL (≈ 3.1 µM); IC90 (μg/ml) BSU 43639 [9]: 1.9 µg/mL (≈ 3.1 µM) |
